In US12440476B2, “Agents that target telomerase reverse transcriptase (TERT) for treating cancer and sensitizing cancer cells to genotoxic therapy” (Northwestern University, priority 2022, dated 2025):

Tests used:
MCF7 cells = experiment: Senescence-associated beta-galactosidase (SA-β-Gal) assay; assay type: cell-based, human; details: 50 nM, 7 days after IR
Procedure: MCF7, Saos-2, or CT26 cells were seeded at 3×10^4 per well in 6-well plates and allowed to attach to plate overnight. […] Then MCF7 and Saos-2 cells were irradiated with 0 or 6 Gy and CT26 cells with 0 or 10 Gy. After IR, MCF7 and Saos-2 cells were continuously cultured for 7 days and CT26 for 5 days, then fixed in 2% PFA and stained with staining buffer (1 mg/ml X-Gal (Golden Bio), 40 mM citric acid/sodium phosphate, 150 mM NaCl, 2 mM MgCl2, 3.3 mM K3[Fe(CN)6], 3.3 mM K4[Fe(CN)6], pH=6) for 16 h at 37° C., then washed with warm PBS three times and imaged in PBS within a week. Images were captured on a Zeiss Axiovert 200M microscope with a 20× Plan-NeoFluar objective and Axiocam digital camera. SA-β-Gal-positive and -negative cells were counted in more than 5 fields, yielding an average percentage indicated on each SA-β-Gal image as mean±SD. Three replicates were performed.

CT26 tumors = experiment: Subcutaneous CT26 tumor growth, IR with or without NU-1, immunodeficient host; assay type: in vivo; details: NSG mice
Procedure: (§1) For tumor inoculation, 7-9 week BALB/c mice or NSG mice were subcutaneously injected in the flank with 0.5×10^6 CT26 cells in 100 μL PBS. On Day 9 (tumor average volume ˜30 mm^3), the tumor bearing BALB/c mice were randomly divided into 4 groups of 8, while the NSG mice were randomly divided into 2 groups of 5-6. For NU-1 treatment, 10 mg/kg of NU-1 in 100 μL PBS was injected intraperitoneally once on each of the 2 days before, the day of and 2 days after irradiation. Mouse weight was measured before treatment. Tumor irradiation was conducted on Day 11 using a RadSource RS-2000 X-Ray generator operating at 160 kV and 25 mA at 10 Gy, calibrated by NIST traceable dosimetry. From Day 7 after tumor inoculation, tumors were measured by calipers every 2-3 days and volume calculated using the formula: Tumor volume (mm^3)=length (mm)×width (mm)×width (mm)[…]. On Day 18 after tumor inoculation, tumors from 3 mice under each treatment condition were collected for histology analysis. The rest of the mice were continuously maintained and recorded until at least Day 28 or reaching the humane endpoint for tumor volume. No animals that formed tumors after injection with CT26 cells were excluded from any studies reported here.
CT26 tumors were collected 5 days after treatment (Day 18 after tumor inoculation) and fixed in 10% neutral formalin for 24 h. […]

MCF7-FUCCI cells = experiment: Time-lapse live-cell analysis of cell cycle; assay type: cell-based, human; details: 0.5 μM for 1 h, then 6 Gy, 6 days
Procedure: MCF7-FUCCI cells were seeded at 3×10^4 per well in 6-well plates, allowed to attach overnight, then treated with 0.5 μM NU-2 control, NU-1 or chrolactomycin for 1 h, followed by 6 Gy. Then, live-cell imaging was conducted using the IncuCyteS3. Phase contrast along with green and red channels were acquired at 20× magnification with scanning every 2 h for 6 days. 16 non-overlapping fields were captured for each well. Representative consecutive images were used to create the movies using Fiji (Schindelin et al., 2012).

CT26 subcutaneous tumors = experiment: Subcutaneous CT26 tumor growth, NU-1 with or without 10 Gy; assay type: in vivo, BALB/c mice
Procedure: as §1
CT26 tumors were collected 5 days after treatment (Day 18 after tumor inoculation) and fixed in 10% neutral formalin for 24 h. Formaldehyde-fixed paraffin-embedded (FFPE) tumors were sectioned and stained with hematoxylin and eosin (H&E) by the Human Tissue Resource Center at The University of Chicago. To perform immunofluorescence analysis, tumor sections were deparaffinized in xylene for 10 min, then rehydrated with 95%, 70%, 50%, and 0% ethanol for 5 min each. After that, the tumor section was immersed in 10 mM sodium citrate buffer (pH 6.0) for 30 min at 90° C. for antigen retrieval. Then the tumor sections were blocked in 5% BSA-TBS, stained with anti-Ki67 (1:1000), anti-γH2AX (1:500), anti-CD45 (1:500), anti-CD11c (1:250), anti-CD8 (1:250), anti-granzyme B (1:250) and anti-PD-L1 primary antibodies diluted in 5% BSA-TBS at 4° C. overnight. Followed by washing with TBST, tumor sections were stained with fluorophore-conjugated secondary antibodies (1:2000, Vector Labs) and DAPI (1 μg/mL) diluted in 5% BSA-TBS for 90 min at room temperature. The H&E stained tissue sections were scanned using an Olympus VS200 SlideView Whole Slide Scanner. The fluorescent tumor sections were imaged using a 3i Marianas Spinning Disk Confocal with a 20× objective and pseudo-colored using Fiji. Detailed primary antibody information is provided in Key resources table.

Tolerability in mice = assay type: in vivo; details: BALB/c mice
[1] = IR + NU-1, tumors removed on Day 18

C=C1C(=O)[C@](C)(C(=O)OC)[C@H](CCc2cn(Cc3ccc(F)cc3F)nn2)O[C@@H]1C [NU-1]
Enhancement of senescence after IR at low concentration (MCF7 cells): sufficient to enhance senescence after IR
Tumor elimination (CT26 tumors; IR + NU-1): no longer sufficient to eliminate tumors
Tumor growth delay (CT26 tumors; IR + NU-1 vs IR alone): enhanced growth delay
Surviving cells arrested with G1 marker expression and senescent morphology (MCF7-FUCCI cells): ~80%
Effect on tumor growth, NU-1 alone (CT26 subcutaneous tumors; 10 mg/kg IP daily Days 9 to 13, no IR): no appreciable effect
Tumors eliminated within two weeks after treatment (CT26 subcutaneous tumors; IR (10 Gy, Day 11) + NU-1 10 mg/kg IP Days 9 to 13): 7 of 8
Tumor immune infiltration (CT26 subcutaneous tumors; IR + NU-1, Day 18 tumor sections): markedly higher tumor immune infiltration
Tumor recurrence after clearance (CT26 subcutaneous tumors; IR + NU-1, followed 54 days): did not recur
Ki-67 expression in tumors vs IR alone (CT26 subcutaneous tumors; [1]): lower expression of proliferation marker Ki-67
Persistent γH2AX in tumors vs IR alone (CT26 subcutaneous tumors; [1]): upregulation of persistent γH2AX
PD-L1 in tumors (CT26 subcutaneous tumors; IR + NU-1 vs IR alone): less increase in PD-L1
Tolerability in mice (Tolerability in mice): well-tolerated
